Calls of active or inactive are those of the source. The calls are words filed in the database; no cut-off is given here.
Legend:
BV-2 [1] = assay: Antiinflammatory activity in C57BL/6 mouse microglial BV-2 cells assessed as reduction in LPS-induced IL-6 release at 30 umol/L pretreated for 3 hrs followed by LPS stimulation and measured after 6 hrs by AlphaLISA assay; format: functional; details: C57BL/6, BV-2, 9 h, dose 30 µmol/L
BV-2 [2] = assay: Antiinflammatory activity in C57BL/6 mouse microglial BV-2 cells assessed as reduction in LPS-induced IL-6 release at 30 umol/L pretreated for 3 hrs followed by LPS stimulation and measured after 24 hrs by AlphaLISA assay; format: functional; details: C57BL/6, BV-2, 27 h, dose 30 µmol/L
BV-2 [3] = assay: Antiinflammatory activity in C57BL/6 mouse microglial BV-2 cells assessed as reduction in LPS-induced TNF-alpha release at 30 umol/L pretreated for 3 hrs followed by LPS stimulation and measured after 6 hrs by AlphaLISA assay; format: functional; details: C57BL/6, BV-2, 9 h, dose 30 µmol/L
BV-2 [4] = assay: Antiinflammatory activity in C57BL/6 mouse microglial BV-2 cells assessed as reduction in LPS induced IL-6 mRNA expression level at 30 umol/L pretreated for 3 hrs followed by LPS stimulation and measured after 24 hrs by qRT-PCR analysis; format: functional, cell-based; details: dose 30.0 µmol/L, time 27.0 hrs
BV-2 [5] = assay: Antiinflammatory activity against LPS-stimulated C57BL/6 mouse microglial BV-2 cells assessed as reduction in cellular content of TNF-alpha level at 30 umol/L pretreated for 3 hrs followed by LPS stimulation and measured after 24 hrs by AlphaLISA assay; format: functional, cell-based; details: dose 30.0 µmol/L, time 27.0 hrs
BV-2 [6] = assay: Antiinflammatory activity in C57BL/6 mouse microglial BV-2 cells assessed as reduction in LPS-induced TNF-alpha release at 30 umol/L pretreated for 3 hrs followed by LPS stimulation and measured after 24 hrs by AlphaLISA assay; format: functional; details: C57BL/6, BV-2, 27 h, dose 30 µmol/L
BV-2 [7] = assay: Antiinflammatory activity against LPS-stimulated C57BL/6 mouse microglial BV-2 cells assessed as reduction in cellular content of IL-1 beta level at 30 umol/L pretreated for 3 hrs followed by LPS stimulation and measured after 24 hrs by AlphaLISA assay; format: functional, cell-based; details: dose 30.0 µmol/L, time 27.0 hrs
BV-2 [8] = assay: Antiinflammatory activity against LPS-stimulated C57BL/6 mouse microglial BV-2 cells assessed as reduction in cellular content of IL-6 level at 30 umol/L pretreated for 3 hrs followed by LPS stimulation and measured after 24 hrs by AlphaLISA assay; format: functional, cell-based; details: dose 30.0 µmol/L, time 27.0 hrs
BV-2 [9] = assay: Antiinflammatory activity against LPS-stimulated C57BL/6 mouse microglial BV-2 cells assessed as reduction in cellular content of TNF-alpha level at 30 umol/L pretreated for 3 hrs followed by LPS stimulation and measured after 6 hrs by AlphaLISA assay; format: functional, cell-based; details: dose 30.0 µmol/L, time 9.0 hrs
BV-2 [10] = assay: Antiinflammatory activity against LPS-stimulated C57BL/6 mouse microglial BV-2 cells assessed as reduction in cellular content of IL-6 level at 30 umol/L pretreated for 3 hrs followed by LPS stimulation and measured after 6 hrs by AlphaLISA assay; format: functional, cell-based; details: dose 30.0 µmol/L, time 9.0 hrs
BV-2 [11] = assay: Antiinflammatory activity in C57BL/6 mouse microglial BV-2 cells assessed as reduction in LPS induced IL-1 beta mRNA expression level at 30 umol/L pretreated for 3 hrs followed by LPS stimulation and measured after 24 hrs by qRT-PCR analysis; format: functional, cell-based; details: dose 30.0 µmol/L, time 27.0 hrs

For `CCC(O)/C=C/C=C\C=C\[C@H](O)CCCCCCCC(=O)O` (mixture of isomers), the inhibition at 30 µM (BV-2 [1]) was 20.8%, the inhibition at 30 µM (BV-2 [2]) was 30.5% and the inhibition at 30 µM (BV-2 [3]) was 14.1%. For the same molecule, the Activity (BV-2 [4]) was “Active”, the Activity (BV-2 [5]) was “Active” and the inhibition at 30 µM (BV-2 [6]) was 22.7%. For the same molecule, the Activity (BV-2 [7]) was “Active”, the Activity (BV-2 [8]) was “Active” and the Activity (BV-2 [9]) was “Active”. For the same molecule, the Activity (BV-2 [10]) was “Active” and the Activity (BV-2 [11]) was “Active”.

Reference: ChEMBL document CHEMBL5131489, “Linotrins: Omega-3 oxylipins featuring an E,Z,E conjugated triene motif are present in the plant kingdom and alleviate inflammation in LPS-challenged microglial cells” (2022)
